Results as given in patent publication US6444613B1, “Defoliant” (Hoechst Schering AgrEvo GmbH, priority 1999, dated 2002).

Tested on: cotton plants
Experiment: Action as defoliant: leaf abscission of cotton plants after spray application
Type: in vivo

CCOC(=O)C(Cl)Cc1cc(-n2nc(C)n(C(F)F)c2=O)c(F)cc1Cl (centres unmarked) [Carfentrazone-ethyl, carfentrazone-ethyl]
Effect in % (leaf abscission) (Table 3.1 carfentrazone-ethyl trial, dose 25 g/ha, 10 days): 0%
Effect in % (leaf abscission) (Table 3.1 carfentrazone-ethyl trial, dose 25 g/ha, 20 days): 5%
Effect in % (leaf abscission) (Table 3.2 carfentrazone-ethyl trial, dose 1.5 g/ha, 6 days): 29%
Effect in % (leaf abscission) (Table 3.2 carfentrazone-ethyl trial, dose 1.5 g/ha, 9 days): 29%

COC(=O)CSc1cc(/N=c2\sc(=O)n3n2CCCC3)c(F)cc1Cl [Fluthiacet-methyl, fluthiacet-methyl]
Effect in % (leaf abscission) (Table 1 fluthiacet-methyl trial, dose 0.,5 g/ha, 4 days): 5%
Effect in % (leaf abscission) (Table 1 fluthiacet-methyl trial, dose 0.,5 g/ha, 5 days): 14%
Effect in % (leaf abscission) (Table 1 fluthiacet-methyl trial, dose 0.25 g/ha, 4 days): 0%
Effect in % (leaf abscission) (Table 1 fluthiacet-methyl trial, dose 0.25 g/ha, 5 days): 0%

O=C(Nc1ccccc1)Nc1cnns1 [Thidiazuron, thidiazuron]
Effect in % (leaf abscission) (Table 1 fluthiacet-methyl trial, dose 25 g/ha, 4 days, cotton 8-10 leaf stage): 5%
Effect in % (leaf abscission) (Table 1 fluthiacet-methyl trial, dose 25 g/ha, 5 days, cotton 8-10 leaf stage): 24%
Effect in % (leaf abscission) (Table 2 pyraflufen-ethyl trial, dose 25 g/ha, 3 days): 4%
Effect in % (leaf abscission) (Table 2 pyraflufen-ethyl trial, dose 25 g/ha, 5 days): 17%
Effect in % (leaf abscission) (Table 3.1 carfentrazone-ethyl trial, dose 80 g/ha, 10 days): 0%
Effect in % (leaf abscission) (Table 3.1 carfentrazone-ethyl trial, dose 80 g/ha, 20 days): 8%
Effect in % (leaf abscission) (Table 3.2 carfentrazone-ethyl trial, dose 25 g/ha, 6 days): 29%
Effect in % (leaf abscission) (Table 3.2 carfentrazone-ethyl trial, dose 25 g/ha, 9 days): 52%

pyraflufen-ethyl
Effect in % (leaf abscission) (Table 2 pyraflufen-ethyl trial, dose 1 g/ha, 3 days): 0%
Effect in % (leaf abscission) (Table 2 pyraflufen-ethyl trial, dose 1 g/ha, 5 days): 0%
Effect in % (leaf abscission) (Table 2 pyraflufen-ethyl trial, dose 2 g/ha, 3 days): 0%
Effect in % (leaf abscission) (Table 2 pyraflufen-ethyl trial, dose 2 g/ha, 5 days): 0%
